The results in this text go back to PubChem BioAssay AID330 (DTP/NCI, 2004).

The subject of this test is P388 leukemia ip, CD2F1 mice, survival T/C. The test can be described thus: NCI In Vivo Anticancer Drug Screen. Data for tumor model P388 Leukemia (intraperitoneal) in CD2F1 (CDF1) mice. The settings on record: endpoint: median survival time, higher = longer survival. Put shortly:
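Mice carrying the transplanted tumor received test compound or vehicle. Survival was recorded in each group, and the value is the treated-group measurement divided by that of the vehicle-treated control group.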

Where [1] appears, read: dose: 60.0 mg/kg/injection, schedule: Q01DX005 (ip), vehicle: saline with Tween-80.
Where [2] appears, read: dose: 120.0 mg/kg/injection, schedule: Q01DX005 (ip), vehicle: saline with Tween-80.
The mark [3] stands for this setting: dose: 240.0 mg/kg/injection, schedule: Q01DX005 (ip), vehicle: saline with Tween-80.
Setting [4] is: dose: 100.0 mg/kg/injection, schedule: Q01DX001 (ip), vehicle: Klucel (hydroxypropylcellulose) (HPC).
[5] abbreviates: dose: 200.0 mg/kg/injection, schedule: Q01DX001 (ip), vehicle: Klucel (hydroxypropylcellulose) (HPC).
Setting [6] is: dose: 400.0 mg/kg/injection, schedule: Q01DX001 (ip), vehicle: Klucel (hydroxypropylcellulose) (HPC).
[7] abbreviates: dose: 50.0 mg/kg/injection, schedule: Q01DX009 (ip), vehicle: saline.
The mark [8] stands for this setting: dose: 100.0 mg/kg/injection, schedule: Q01DX009 (ip), vehicle: saline.
[9] abbreviates: dose: 12.5 mg/kg/injection, schedule: Q01DX009 (ip), vehicle: saline.
Where [10] appears, read: dose: 25.0 mg/kg/injection, schedule: Q01DX009 (ip), vehicle: saline.

Several values for one entry are separate records, joined by “and”; a condition that tells them apart may be missing. Equal values may be shown once. Inconclusive results and toxic doses are left out.

Turning to `CCOC(=O)Nc1cc2c(c(N)n1)N=C(c1ccccc1)CN2`, the T/C by setting is: (dose: 2.6 mg/kg/injection, schedule: Q04DX003 (ip), vehicle: saline with Tween-80) 119 % of control; (dose: 3.0 mg/kg/injection, schedule: Q01DX005 (ip), vehicle: saline with Tween-80) 117 % of control and 123 % of control; (dose: 3.0 mg/kg/injection, schedule: Q01DX009 (ip), vehicle: saline with Tween-80) 156 % of control; (dose: 6.0 mg/kg/injection, schedule: Q01DX009 (ip), vehicle: saline with Tween-80) 105 % of control; (dose: 6.0 mg/kg/injection, schedule: Q04DX003 (ip), vehicle: saline with Tween-80) 151 % of control; (dose: 6.25 mg/kg/injection, schedule: Q01DX001 (ip), vehicle: saline with Tween-80) 118 % of control. Besides, the T/C runs as follows: (dose: 9.0 mg/kg/injection, schedule: Q04DX003 (ip), vehicle: saline with Tween-80) 173 % of control; (dose: 12.0 mg/kg/injection, schedule: Q01DX001 (ip), vehicle: saline with Tween-80) 151 % of control and 157 % of control; (dose: 12.5 mg/kg/injection, schedule: Q01DX001 (ip), vehicle: saline with Tween-80) 150 % of control; (dose: 18.0 mg/kg/injection, schedule: Q01DX001 (ip), vehicle: saline with Tween-80) 168 % of control.
In the case of `CON1C(=O)C(c2ccccc2)c2ccccc21` (stereo unspecified), the T/C runs as follows: under setting [1], 106 % of control; under setting [2], 96 % of control; under setting [3], 96 % of control.
In the case of `O=C1C(CO)=C[C@H](O)[C@@]2(CO)O[C@@H]12`, the T/C is, setting by setting: (dose: 6.25 mg/kg/injection, schedule: Q04DX002 (ip), vehicle: saline) 100 % of control; (dose: 12.5 mg/kg/injection, schedule: Q04DX002 (ip), vehicle: saline) 107 % of control; (dose: 25.0 mg/kg/injection, schedule: Q04DX002 (ip), vehicle: saline) 107 % of control; (dose: 50.0 mg/kg/injection, schedule: Q04DX002 (ip), vehicle: saline) 100 % of control; (dose: 100.0 mg/kg/injection, schedule: Q04DX002 (ip), vehicle: saline) 121 % of control.
On to `CC(C)(C)c1cc2c3c(c1)C(C)(C)OS314(OC2=O)OC(=O)c2cc(C(C)(C)C)cc(c21)C(C)(C)O4`, for which the T/C is 111 % of control (dose: 25.0 mg/kg/injection, schedule: Q01DX001 (ip), vehicle: saline with Tween-80); 92 % of control (dose: 50.0 mg/kg/injection, schedule: Q01DX001 (ip), vehicle: saline with Tween-80); 100 % of control (dose: 100.0 mg/kg/injection, schedule: Q01DX001 (ip), vehicle: saline with Tween-80).
As for `COc1cccc2c1C(=O)c1c(O)c3c(c(O)c1C2=O)CC(O)(/C(C)=N/NC(=S)c1ccccc1)CC3OC1CC(N)C(O)C(C)O1` (stereo unspecified), the T/C by setting is: (dose: 3.13 mg/kg/injection, schedule: Q01DX009 (ip), vehicle: other) 88 % of control; (dose: 6.25 mg/kg/injection, schedule: Q01DX009 (ip), vehicle: other) 96 % of control; (dose: 6.25 mg/kg/injection, schedule: Q04DX003 (ip), vehicle: saline) 154 % of control; (dose: 12.5 mg/kg/injection, schedule: Q01DX009 (ip), vehicle: other) 103 % of control; (dose: 12.5 mg/kg/injection, schedule: Q04DX003 (ip), vehicle: saline) 159 % of control; (dose: 25.0 mg/kg/injection, schedule: Q01DX009 (ip), vehicle: other) 88 % of control. For the same compound, where the note is “dose: 25.0 mg/kg/injection, schedule: Q04DX003 (ip), vehicle: saline”, the T/C is 166 % of control.
On to `FC(F)(F)COc1ccc(-c2nnc(-c3ccc(OCC(F)(F)F)cc3)o2)cc1`, for which the T/C was 90 % of control (dose: 100.0 mg/kg/injection, schedule: Q04DX002 (ip), vehicle: saline with Tween-80); 87 % of control (dose: 200.0 mg/kg/injection, schedule: Q04DX002 (ip), vehicle: saline with Tween-80); 86 % of control (dose: 400.0 mg/kg/injection, schedule: Q04DX002 (ip), vehicle: saline with Tween-80).
With `CCOC(=O)Cn1cc([N+](=O)[O-])sc1=NC(=O)c1ccco1`, the T/C is, setting by setting: under setting [4], 90 % of control; under setting [5], 98 % of control; under setting [6], 97 % of control.
For `NCc1cc(=O)[nH]o1`, the T/C is, setting by setting: under setting [7], 89 % of control; under setting [8], 92 % of control.
Take `O=C(Oc1ccccc1)c1cc2ccccc2cc1O`: the T/C reads like this: (dose: 6.25 mg/kg/injection, schedule: Q01DX009 (ip), vehicle: saline) 100 % of control; under setting [9], 103 % of control; under setting [10], 100 % of control.
`Clc1ccc(Nc2ncnc3oc(-c4ccccc4)c(-c4ccccc4)c23)cc1`: the T/C by setting is: under setting [1], 100 % of control; under setting [2], 97 % of control; under setting [3], 90 % of control.
`Cc1ccc(NSC(Cl)(Cl)Cl)cc1`: the T/C reads like this: under setting [9], 100 % of control; (dose: 12.5 mg/kg/injection, schedule: Q01DX009 (ip), vehicle: suspension in saline) 100 % of control; under setting [10], 100 % of control; (dose: 25.0 mg/kg/injection, schedule: Q01DX009 (ip), vehicle: suspension in saline) 100 % of control; under setting [7], 104 % of control and 123 % of control; (dose: 50.0 mg/kg/injection, schedule: Q01DX009 (ip), vehicle: suspension in saline) 97 % of control. Further, the T/C (dose: 100.0 mg/kg/injection, schedule: Q01DX009 (ip), vehicle: suspension in saline) was 87 % of control.
Take `CC(OS(C)(=O)=O)/C(Br)=C(/Br)C(C)OS(C)(=O)=O` (stereo unspecified): the T/C was 158 % of control under setting [4], 204 % of control under setting [5] and 230 % of control under setting [6].
Consider `NC1=C(O)C(=O)C(c2ccccn2)O1` (stereo unspecified), for which the T/C (dose: 25.0 mg/kg/injection, schedule: Q01DX001 (ip), vehicle: other) is 105 % of control; the T/C (dose: 50.0 mg/kg/injection, schedule: Q01DX001 (ip), vehicle: other) is 119 % of control; the T/C (dose: 100.0 mg/kg/injection, schedule: Q01DX001 (ip), vehicle: other) is 116 % of control.
With `CO[C@@]12[C@@H]3N[C@@H]3CN1C1=C(C(=O)C(NCC3CCCO3)=C(C)C1=O)[C@@H]2COC(N)=O` (stereo partly specified), the T/C by setting is: (dose: 1.56 mg/kg/injection, schedule: Q01DX005 (ip), vehicle: distilled water + Tween-80) 155 % of control; (dose: 3.12 mg/kg/injection, schedule: Q01DX005 (ip), vehicle: distilled water + Tween-80) 194 % of control; (dose: 6.25 mg/kg/injection, schedule: Q01DX005 (ip), vehicle: distilled water + Tween-80) 198 % of control and 241 % of control; (dose: 12.5 mg/kg/injection, schedule: Q01DX001 (ip), vehicle: distilled water + Tween-80) 158 % of control; (dose: 12.5 mg/kg/injection, schedule: Q01DX005 (ip), vehicle: distilled water + Tween-80) 223 % of control and 225 % of control; (dose: 25.0 mg/kg/injection, schedule: Q01DX001 (ip), vehicle: distilled water + Tween-80) 165 % of control. In addition, the T/C reads like this: (dose: 25.0 mg/kg/injection, schedule: Q01DX005 (ip), vehicle: distilled water + Tween-80) 100 % of control and 207 % of control; (dose: 50.0 mg/kg/injection, schedule: Q01DX001 (ip), vehicle: distilled water + Tween-80) 203 % of control.
Regarding `Cn1c(C(O)CCl)nc2c3ccccc3ccc21` (stereo unspecified), the T/C runs as follows: under setting [10], 109 % of control; under setting [7], 106 % of control; under setting [8], 109 % of control and 92 % of control.
In the case of `COC(=O)/C(C1=C(Br)C(=O)C(C)=C(Br)C1=O)=C1/CCCN1`, the T/C (dose: 9.37 mg/kg/injection, schedule: Q01DX005 (ip), vehicle: Klucel (hydroxypropylcellulose) (HPC)) is 112 % of control; the T/C (dose: 9.37 mg/kg/injection, schedule: Q04DX002 (ip), vehicle: Klucel (hydroxypropylcellulose) (HPC)) is 101 % of control; the T/C (dose: 18.75 mg/kg/injection, schedule: Q01DX005 (ip), vehicle: Klucel (hydroxypropylcellulose) (HPC)) was 117 % of control; the T/C (dose: 18.75 mg/kg/injection, schedule: Q04DX002 (ip), vehicle: Klucel (hydroxypropylcellulose) (HPC)) was 92 % of control; the T/C (dose: 37.5 mg/kg/injection, schedule: Q01DX005 (ip), vehicle: Klucel (hydroxypropylcellulose) (HPC)) is 112 % of control; the T/C (dose: 37.5 mg/kg/injection, schedule: Q04DX002 (ip), vehicle: Klucel (hydroxypropylcellulose) (HPC)) is 100 % of control. In addition, the T/C (dose: 75.0 mg/kg/injection, schedule: Q04DX002 (ip), vehicle: Klucel (hydroxypropylcellulose) (HPC)) is 104 % of control.
On to `COc1nc2[nH]ccc2c(=O)n1C`, for which the T/C is, setting by setting: under setting [1], 101 % of control; under setting [2], 92 % of control; under setting [3], 89 % of control.
